Data published in patent publication US9850283B2, “Macrocyclic inhibitors of the PD-1/PD-L1 and CD80(B7-1)/PD-L1 protein/protein interactions” (BRISTOL-MYERS SQUIBB COMPANY, priority 2013, dated 2017).
Positions of bridges follow the written chain, without caps; N, C: chain ends. Non-standard residues stand in square brackets, D forms with d. Residues, ends and D or L forms follow the SMILES beside them. ξ: configuration not given here. Bta = N[C@@H](Cc1csc2ccccc12)C(=O)O; Hyp = O=C(O)[C@@H]1C[C@@H](O)CN1; NMeNle = CCCC[C@H](NC)C(=O)O; NMeS = CN[C@@H](CO)C(=O)O; hSer = N[C@@H](CCO)C(=O)O; NMeA = CN[C@@H](C)C(=O)O; ξC = NC(CS)C(=O)O

How the values were obtained:
[1] = biological target: T1, LK35.2-hPD-L1 cells / PE-labeled PD-1-Ig (Homo sapiens, UniProt Q9NZQ7); test: LK35.2-hPD-L1 cell binding high-content screening assay; type: cell-based; settings: cell binding assay, cell line not given; cluster symbol; read-out: CBA IC50 cluster
T1 construct: expressed in transfected cells; host or cells: LK35.2 mouse B cell line
How it was run: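 Mouse LK35.2 B cells stably overexpressing human PD-L1 were cultured overnight in RPMI with 10% FCS, then given compound and PE-labeled human PD-1-Ig (1 nM final) for 1 h at 37 °C. After three dPBS washes, bound fluorescence was quantified by high-content imaging.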

[2] = biological target: T2, Human PD-L1/PD-1 (Homo sapiens, UniProt Q9NZQ7); test: HTRF PD-1-Ig/PD-L1-His binding assay (human PD-L1); settings: cluster symbol; read-out: HTRF IC50 cluster
T2 construct: made in house; host or cells: HEK293T
How it was run: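 Readout: time-resolved FRET between Eu cryptate-labeled anti-Ig (1 nM final) and APC-labeled anti-His (20 nM final) antibodies. These detect interaction of Fc-fused PD-1 with His-tagged human PD-L1 in dPBS containing 0.1% BSA and 0.05% Tween-20.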

T1 sequence (Q9NZQ7 19-290): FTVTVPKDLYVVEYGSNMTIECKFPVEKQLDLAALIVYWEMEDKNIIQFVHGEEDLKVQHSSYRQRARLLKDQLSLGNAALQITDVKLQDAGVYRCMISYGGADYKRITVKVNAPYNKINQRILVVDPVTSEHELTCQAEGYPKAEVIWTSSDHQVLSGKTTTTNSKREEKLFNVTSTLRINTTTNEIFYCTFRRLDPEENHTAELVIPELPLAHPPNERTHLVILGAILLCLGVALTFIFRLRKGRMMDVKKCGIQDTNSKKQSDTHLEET
T2 sequence (Q9NZQ7 with tags, fused parts or gaps): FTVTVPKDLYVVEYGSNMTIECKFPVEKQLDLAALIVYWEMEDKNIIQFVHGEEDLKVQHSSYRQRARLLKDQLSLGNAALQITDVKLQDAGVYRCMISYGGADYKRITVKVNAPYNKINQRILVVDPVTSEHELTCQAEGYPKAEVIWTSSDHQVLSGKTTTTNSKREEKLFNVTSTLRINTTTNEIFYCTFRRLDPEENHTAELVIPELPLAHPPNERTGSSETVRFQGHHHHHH

SMILES | IC50 [1] [nM] | IC50 [2] [nM]
CCCC[C@H]1C(=O)N(C)[C@@H](CCCC)C(=O)N[C@@H](CCCNC(=N)N)C(=O)NC(C(=O)NCC(N)=O)CSCC(=O)N[C@@H](Cc2ccc(O)cc2)C(=O)N(C)[C@@H](CO)C(=O)N[C@@H](CC(N)=O)C(=O)N2CCC[C@H]2C(=O)N[C@@H](Cc2cnc[nH]2)C(=O)N[C@@H](CC(C)C)C(=O)N2CCC[C@H]2C(=O)N[C@@H](Cc2c[nH]c3ccccc23)C(=O)N[C@@H](CO)C(=O)N[C@@H](Cc2c[nH]c3ccccc23)C(=O)N1C (stereo partly drawn) [Example 9038] ({CH2CO}-Y[NMeS]NPHLPWSW[NMeNle][NMeNle]R[ξC]G-NH2; thioether N-14) | 4.78 to 72.9 | 6.76 to 30.3
CCCC[C@H]1C(=O)N(C)[C@@H](CCCC)C(=O)N[C@@H](CCCNC(=N)N)C(=O)NC(C(=O)NCC(N)=O)CSCC(=O)N[C@@H](Cc2ccc(O)cc2)C(=O)N(C)[C@@H](CO)C(=O)N[C@@H](CC(N)=O)C(=O)N2CCC[C@H]2C(=O)N[C@@H](Cc2cnc[nH]2)C(=O)N[C@@H](CC(C)C)C(=O)N2C[C@H](O)C[C@H]2C(=O)N[C@@H](Cc2c[nH]c3ccccc23)C(=O)N[C@@H](CO)C(=O)N[C@@H](Cc2csc3ccccc23)C(=O)N1C (stereo partly drawn) [Example 9039] ({CH2CO}-Y[NMeS]NPHL[Hyp]WS[Bta][NMeNle][NMeNle]R[ξC]G-NH2; thioether N-14) | 0.158 to 4.71 | 0.385 to 6.74
CCCC[C@H]1C(=O)N(C)[C@@H](COCC)C(=O)N[C@@H](CCCNC(=N)N)C(=O)NC(C(=O)NCC(N)=O)CSCC(=O)N[C@@H](Cc2ccc(O)cc2)C(=O)N(C)[C@@H](C)C(=O)N[C@@H](CC(N)=O)C(=O)N2CCC[C@H]2C(=O)N[C@@H](Cc2cnc[nH]2)C(=O)N[C@@H](CC(C)C)C(=O)N2CCC[C@H]2C(=O)N[C@@H](Cc2c[nH]c3ccccc23)C(=O)N[C@@H](CO)C(=O)N[C@@H](Cc2csc3ccccc23)C(=O)N1C (stereo partly drawn) [Example 9040] ({CH2CO}-Y[NMeA]NPHLPWS[Bta][NMeNle][NMeS](Et)R[ξC]G-NH2; thioether N-14) | 0.158 to 4.71 | 0.385 to 6.74
CCCC[C@H]1C(=O)N(C)[C@@H](COCC)C(=O)N[C@@H](CCCNC(=N)N)C(=O)NC(C(=O)NCC(N)=O)CSCC(=O)N[C@@H](Cc2ccc(O)cc2)C(=O)N(C)[C@@H](C)C(=O)N[C@@H](CC(N)=O)C(=O)N2CCC[C@H]2C(=O)N[C@@H](Cc2cnc[nH]2)C(=O)N[C@@H](CC(C)C)C(=O)N2CCC[C@H]2C(=O)N[C@@H](Cc2c[nH]c3ccccc23)C(=O)N[C@@H](CO)C(=O)N[C@@H](Cc2c[nH]c3ccccc23)C(=O)N1C (stereo partly drawn) [Example 9041] ({CH2CO}-Y[NMeA]NPHLPWSW[NMeNle][NMeS](Et)R[ξC]G-NH2; thioether N-14) | 0.158 to 4.71 | 0.385 to 6.74
CCCC[C@H]1C(=O)N(C)[C@@H](COCC)C(=O)N[C@@H](CCCNC(=N)N)C(=O)NC(C(=O)NCC(N)=O)CSCC(=O)N[C@@H](Cc2ccc(O)cc2)C(=O)N(C)[C@@H](C)C(=O)N[C@@H](CC(N)=O)C(=O)N2CCC[C@H]2C(=O)N[C@@H](Cc2cnc[nH]2)C(=O)N[C@@H](CC(C)C)C(=O)N2C[C@H](O)C[C@H]2C(=O)N[C@@H](Cc2c[nH]c3ccccc23)C(=O)N[C@@H](CO)C(=O)N[C@@H](Cc2csc3ccccc23)C(=O)N1C (stereo partly drawn) [Example 9042] ({CH2CO}-Y[NMeA]NPHL[Hyp]WS[Bta][NMeNle][NMeS](Et)R[ξC]G-NH2; thioether N-14) | 0.158 to 4.71 | 0.385 to 6.74
CCCC[C@H]1C(=O)N(C)[C@@H](COCC)C(=O)N[C@@H](CCCNC(=N)N)C(=O)NC(C(=O)NCC(N)=O)CSCC(=O)N[C@@H](Cc2ccc(O)cc2)C(=O)N(C)[C@@H](C)C(=O)N[C@@H](CC(N)=O)C(=O)N2CCC[C@H]2C(=O)N[C@@H](Cc2cnc[nH]2)C(=O)N[C@@H](CC(C)C)C(=O)N2C[C@H](O)C[C@H]2C(=O)N[C@@H](Cc2c[nH]c3ccccc23)C(=O)N[C@@H](CO)C(=O)N[C@@H](Cc2c[nH]c3ccccc23)C(=O)N1C (stereo partly drawn) [Example 9043] | 0.158 to 4.71 | 0.385 to 6.74
CCCC[C@H]1C(=O)N(C)[C@@H](CO)C(=O)N[C@@H](CCCNC(=N)N)C(=O)NC(C(=O)NCC(N)=O)CSCC(=O)N[C@@H](Cc2ccc(O)cc2)C(=O)N(C)[C@@H](C)C(=O)N[C@@H](CC(N)=O)C(=O)N2CCC[C@H]2C(=O)N[C@@H](Cc2cnc[nH]2)C(=O)N[C@@H](CC(C)C)C(=O)N2CCC[C@H]2C(=O)N[C@@H](Cc2c[nH]c3ccccc23)C(=O)N[C@@H](CO)C(=O)N[C@@H](Cc2csc3ccccc23)C(=O)N1C (stereo partly drawn) [Example 9044] ({CH2CO}-Y[NMeA]NPHLPWS[Bta][NMeNle][NMeS]R[ξC]G-NH2; thioether N-14) | 0.158 to 4.71 | 0.385 to 6.74
CCCC[C@H]1C(=O)N[C@@H](CCCNC(=N)N)C(=O)NC(C(=O)NCC(N)=O)CSCC(=O)N[C@@H](Cc2ccc(O)cc2)C(=O)N(C)[C@@H](C)C(=O)N[C@@H](CC(N)=O)C(=O)N2CCC[C@H]2C(=O)N[C@@H](Cc2cnc[nH]2)C(=O)N[C@@H](CC(C)C)C(=O)N2C[C@H](O)C[C@H]2C(=O)N[C@@H](Cc2c[nH]c3ccccc23)C(=O)N[C@@H](CO)C(=O)N[C@@H](Cc2csc3ccccc23)C(=O)N(C)[C@@H](COCC)C(=O)N1C (stereo partly drawn) [Example 9045] ({CH2CO}-Y[NMeA]NPHL[Hyp]WS[Bta][NMeS](Et)[NMeNle]R[ξC]G-NH2; thioether N-14) | 0.158 to 4.71 | 0.385 to 6.74
CCCC[C@H]1C(=O)N[C@@H](CCCNC(=N)N)C(=O)NC(C(=O)NCC(N)=O)CSCC(=O)N[C@@H](Cc2ccc(O)cc2)C(=O)N(C)[C@@H](C)C(=O)N[C@@H](CC(N)=O)C(=O)N2CCC[C@H]2C(=O)N[C@@H](Cc2cnc[nH]2)C(=O)N[C@@H](CC(C)C)C(=O)N2C[C@H](O)C[C@H]2C(=O)N[C@@H](Cc2c[nH]c3ccccc23)C(=O)N[C@@H](CO)C(=O)N[C@@H](Cc2c[nH]c3ccccc23)C(=O)N(C)[C@@H](COCC)C(=O)N1C (stereo partly drawn) [Example 9046] | 0.158 to 4.71 | 0.385 to 6.74
CCCC[C@H]1C(=O)N(C)[C@@H](CCCC)C(=O)N[C@@H](CCCNC(=N)N)C(=O)NC(C(=O)NCC(N)=O)CSCC(=O)N[C@@H](Cc2ccc(O)cc2)C(=O)N(C)[C@@H](C)C(=O)N[C@@H](CC(N)=O)C(=O)N2CCC[C@H]2C(=O)N[C@@H](Cc2cnc[nH]2)C(=O)N[C@@H](CC(C)C)C(=O)N2CCC[C@H]2C(=O)N[C@@H](Cc2c[nH]c3ccccc23)C(=O)N[C@@H](CCO)C(=O)N[C@@H](Cc2c[nH]c3ccccc23)C(=O)N1C (stereo partly drawn) [Example 9047] ({CH2CO}-Y[NMeA]NPHLPW[hSer]W[NMeNle][NMeNle]R[ξC]G-NH2; thioether N-14) | 0.158 to 4.71 | 0.385 to 6.74
CCCC[C@H]1C(=O)N(C)[C@@H](CCCC)C(=O)N[C@@H](CCCNC(=N)N)C(=O)NC(C(=O)NCC(N)=O)CSCC(=O)N[C@@H](Cc2ccc(O)cc2)C(=O)N(C)[C@@H](C)C(=O)N[C@@H](CC(N)=O)C(=O)N2CCC[C@H]2C(=O)N[C@@H](Cc2cnc[nH]2)C(=O)N[C@@H](CC(C)C)C(=O)N2C[C@H](O)C[C@H]2C(=O)N[C@@H](Cc2c[nH]c3ccccc23)C(=O)N[C@@H](CCO)C(=O)N[C@@H](Cc2csc3ccccc23)C(=O)N1C (stereo partly drawn) [Example 9048] ({CH2CO}-Y[NMeA]NPHL[Hyp]W[hSer][Bta][NMeNle][NMeNle]R[ξC]G-NH2; thioether N-14) | 0.158 to 4.71 | 0.385 to 6.74
CCCC[C@H]1C(=O)N(C)[C@@H](CCCC)C(=O)N[C@@H](CCCNC(=N)N)C(=O)NC(C(=O)NCC(N)=O)CSCC(=O)N[C@@H](Cc2ccc(O)cc2)C(=O)N(C)[C@@H](C)C(=O)N[C@@H](CC(N)=O)C(=O)N2CCC[C@H]2C(=O)N[C@@H](Cc2cnc[nH]2)C(=O)N[C@@H](CC(C)C)C(=O)N2C[C@H](O)C[C@H]2C(=O)N[C@@H](Cc2c[nH]c3ccccc23)C(=O)N[C@@H](CCO)C(=O)N[C@@H](Cc2c[nH]c3ccccc23)C(=O)N1C (stereo partly drawn) [Example 9049] ({CH2CO}-Y[NMeA]NPHL[Hyp]W[hSer]W[NMeNle][NMeNle]R[ξC]G-NH2; thioether N-14) | 0.158 to 4.71 | 0.385 to 6.74
CCCC[C@H]1C(=O)N(C)[C@@H](CCCC)C(=O)N[C@@H](CCCNC(=N)N)C(=O)NC(C(=O)NCC(N)=O)CSCC(=O)N[C@@H](Cc2ccc(O)cc2)C(=O)N(C)[C@@H](C)C(=O)N[C@@H](CC(N)=O)C(=O)N2CCC[C@H]2C(=O)N[C@@H](Cc2cnc[nH]2)C(=O)N[C@@H](CCO)C(=O)N2C[C@H](O)C[C@H]2C(=O)N[C@@H](Cc2c[nH]c3ccccc23)C(=O)N[C@@H](CO)C(=O)N[C@@H](Cc2csc3ccccc23)C(=O)N1C (stereo partly drawn) [Example 9050] ({CH2CO}-Y[NMeA]NPH[hSer][Hyp]WS[Bta][NMeNle][NMeNle]R[ξC]G-NH2; thioether N-14) | > 74.3 | 0.385 to 6.74
CCCC[C@H]1C(=O)N(C)[C@@H](CCCC)C(=O)N[C@@H](CCCNC(=N)N)C(=O)NC(C(=O)NCC(N)=O)CSCC(=O)N[C@@H](Cc2ccc(O)cc2)C(=O)N(C)[C@@H](C)C(=O)N[C@@H](CC(N)=O)C(=O)N2CCC[C@H]2C(=O)N[C@@H](Cc2cnc[nH]2)C(=O)N[C@@H](CCO)C(=O)N2C[C@H](O)C[C@H]2C(=O)N[C@@H](Cc2c[nH]c3ccccc23)C(=O)N[C@@H](CO)C(=O)N[C@@H](Cc2c[nH]c3ccccc23)C(=O)N1C (stereo partly drawn) [Example 9051] ({CH2CO}-Y[NMeA]NPH[hSer][Hyp]WSW[NMeNle][NMeNle]R[ξC]G-NH2; thioether N-14) | 0.158 to 4.71 | 6.76 to 30.3
CCCC[C@H]1C(=O)N(C)[C@@H](CCCC)C(=O)N[C@@H](CCCNC(=N)N)C(=O)NC(C(=O)NCC(N)=O)CSCC(=O)N[C@@H](Cc2ccc(O)cc2)C(=O)N(C)[C@@H](C)C(=O)N[C@@H](CC(N)=O)C(=O)N2CCC[C@H]2C(=O)N[C@@H](Cc2cnc[nH]2)C(=O)N[C@@H](CC(C)C)C(=O)N2CCC[C@H]2C(=O)N[C@@H](Cc2c[nH]c3ccccc23)C(=O)N[C@@H](CCO)C(=O)N[C@@H](Cc2csc3ccccc23)C(=O)N1C (stereo partly drawn) [Example 9052] ({CH2CO}-Y[NMeA]NPHLPW[hSer][Bta][NMeNle][NMeNle]R[ξC]G-NH2; thioether N-14) | 0.158 to 4.71 | 0.385 to 6.74
